How the values were obtained:
Experiment in all cases: Weeding effect in post-emergence stage (greenhouse pot spray)
Assay type in all cases: in vivo
Digitaria sanguinalis = settings: for Digitaria sanguinalis (activity level): Table 2, dose 500 g a.i./ha
Excerpt: (§1) The activity level criteria for plant damage (i.e., growth control rate) are as follows:
(§2) The above growth control rates are fresh weight control rates.
(§3) Experiment on weeding effect in post-emergence stage: monocotyledonous and dicotyledonous weed seeds (Descurainia sophia, Capsella bursa-pastoris, Abutilon theophrasti, Galium aparine, Stellaria media, Lithospermum arvense, rorippa indica, Alopecurus aequalis, Beckmannia syzigachne, Sclerochloa dura, Phleum paniculatum, Bromus japonicus, Aegilops tauschii, Phalaris arundinacea, Amaranthus retroflexus, Chenopodiaceae, Commelina communis, Sonchus arvensis, convolvulus arvensis, Cirsium setosum, Solanum nigrum, Acalypha australis, Digitaria sanguinalis, Echinochloa crusgalli, Setaria viridis, Setaria glauca, Leptochloa chinensis, Monochoria vaginalis, Sagittaria trifolia, Scirpus juncoides, Cyperus rotundus, Cyperus iria, Cyperus difformis, Fimbristylis, Portulaca oleracea, Xanthium sibiricum, Pharbitis nil) and major crop seeds (wheat, corn, rice, soybean, cotton, oilseed rape, millet, sorghum, potato, sesame, ricinus) were placed in plastic pots filled with soil, then covered with 0.5-2 cm of soil, allowed to grow in a good greenhouse environment. After 2 weeks of sowing, the test plants were treated in the 2 to 3 leaf stage. The tested compounds of the present invention were respectively dissolved in acetone, then added with Tween 80 and 1.5 liter/ha of emulsifiable concentrate of methyl oleate as synergist, diluted with a certain amount of water to obtain a solution with a certain concentration, and sprayed with a spray tower onto the plants. After the application, the plants were cultured for 3 weeks in the greenhouse, and then the experimental results of the weeding were counted. […]

Setaria viridis = tested on: Setaria viridis
Excerpt: as §1, §2, §3

Echinochloa crusgalli = settings: for Echinochloa crusgah (activity level): Table 2, dose 500 g a.i./ha
Excerpt: as §1, §2, §3

Abutilon theophrasti = settings: Table 2, dose 500 g a.i./ha
Excerpt: as §1, §2, §3

Cc1nnc(NC(=O)c2ccc(C(F)(F)F)c([S@+](C)[O-])c2F)o1 [1-2 (R-configuration)]
Digitaria sanguinahs (activity level) (Digitaria sanguinalis; Table 3, dose 7.5 g a.i./ha): 0 (Level 0: growth control rate is less than 5%) | Digitaria sanguinahs (activity level) (Digitaria sanguinalis; Table 3, dose 15 g a.i./ha): 1 (Level 1: growth control rate is greater than or equal to 5% and less than 20%) | Digitaria sanguinahs (activity level) (Digitaria sanguinalis; Table 3, dose 30 g a.i./ha): 3 (Level 3: growth control rate is greater than or equal to 40% and less than 60%) | Digitaria sanguinahs (activity level) (Digitaria sanguinalis; Table 3, dose 60 g a.i./ha): 4 (Level 4: growth control rate is greater than or equal to 60% and less than 85%) | Setaria viridis (activity level) (Setaria viridis; Table 3, dose 7.5 g a.i./ha): 0 (Level 0: growth control rate is less than 5%) | Setaria viridis (activity level) (Setaria viridis; Table 3, dose 15 g a.i./ha): 2 (Level 2: growth control rate is greater than or equal to 20% and less than 40%) | Setaria viridis (activity level) (Setaria viridis; Table 3, dose 30 g a.i./ha): 3 (Level 3: growth control rate is greater than or equal to 40% and less than 60%) | Setaria viridis (activity level) (Setaria viridis; Table 3, dose 60 g a.i./ha): 3 (Level 3: growth control rate is greater than or equal to 40% and less than 60%) | Echinochloa crusgali (activity level) (Echinochloa crusgalli; Table 3, dose 7.5 g a.i./ha): 0 (Level 0: growth control rate is less than 5%) | Echinochloa crusgali (activity level) (Echinochloa crusgalli; Table 3, dose 15 g a.i./ha): 1 (Level 1: growth control rate is greater than or equal to 5% and less than 20%) | Echinochloa crusgali (activity level) (Echinochloa crusgalli; Table 3, dose 30 g a.i./ha): 3 (Level 3: growth control rate is greater than or equal to 40% and less than 60%) | Echinochloa crusgali (activity level) (Echinochloa crusgalli; Table 3, dose 60 g a.i./ha): 4 (Level 4: growth control rate is greater than or equal to 60% and less than 85%)

CC[S@+]([O-])c1c(C(F)(F)F)ccc(C(=O)Nc2nnc(C)o2)c1F [1-5 (R-configuration)]
Digitaria sanguinahs (activity level) (Digitaria sanguinalis; Table 3, dose 3.75 g a.i./ha): 3 (Level 3: growth control rate is greater than or equal to 40% and less than 60%) | Digitaria sanguinahs (activity level) (Digitaria sanguinalis; Table 3, dose 7.5 g a.i./ha): 4 (Level 4: growth control rate is greater than or equal to 60% and less than 85%) | Digitaria sanguinahs (activity level) (Digitaria sanguinalis; Table 3, dose 15 g a.i./ha): 5 (Level 5: growth control rate is above 85%) | Digitaria sanguinahs (activity level) (Digitaria sanguinalis; Table 3, dose 30 g a.i./ha): 5 (Level 5: growth control rate is above 85%) | Digitaria sanguinahs (activity level) (Digitaria sanguinalis; Table 3, dose 60 g a.i./ha): 5 (Level 5: growth control rate is above 85%) | Setaria viridis (activity level) (Setaria viridis; Table 3, dose 3.75 g a.i./ha): 3 (Level 3: growth control rate is greater than or equal to 40% and less than 60%) | Setaria viridis (activity level) (Setaria viridis; Table 3, dose 7.5 g a.i./ha): 4 (Level 4: growth control rate is greater than or equal to 60% and less than 85%) | Setaria viridis (activity level) (Setaria viridis; Table 3, dose 15 g a.i./ha): 5 (Level 5: growth control rate is above 85%) | Setaria viridis (activity level) (Setaria viridis; Table 3, dose 30 g a.i./ha): 5 (Level 5: growth control rate is above 85%) | Setaria viridis (activity level) (Setaria viridis; Table 3, dose 60 g a.i./ha): 5 (Level 5: growth control rate is above 85%) | Echinochloa crusgali (activity level) (Echinochloa crusgalli; Table 3, dose 3.75 g a.i./ha): 4 (Level 4: growth control rate is greater than or equal to 60% and less than 85%) | Echinochloa crusgali (activity level) (Echinochloa crusgalli; Table 3, dose 7.5 g a.i./ha): 5 (Level 5: growth control rate is above 85%) | Echinochloa crusgali (activity level) (Echinochloa crusgalli; Table 3, dose 15 g a.i./ha): 5 (Level 5: growth control rate is above 85%) | Echinochloa crusgali (activity level) (Echinochloa crusgalli; Table 3, dose 30 g a.i./ha): 5 (Level 5: growth control rate is above 85%) | Echinochloa crusgali (activity level) (Echinochloa crusgalli; Table 3, dose 60 g a.i./ha): 5 (Level 5: growth control rate is above 85%)

COCC[S@+]([O-])c1c(C(F)(F)F)ccc(C(=O)Nc2nnc(C)o2)c1F [1-57 (R-configuration)]
Digitaria sanguinahs (activity level) (Digitaria sanguinalis; Table 3, dose 125 g a.i./ha): 5 (Level 5: growth control rate is above 85%) | Setaria viridis (activity level) (Setaria viridis; Table 3, dose 125 g a.i./ha): 5 (Level 5: growth control rate is above 85%) | Echinochloa crusgali (activity level) (Echinochloa crusgalli; Table 3, dose 125 g a.i./ha): 5 (Level 5: growth control rate is above 85%)

Cc1nnc(NC(=O)c2ccc(C(F)(F)F)c([S@+]([O-])CC(C)(C)C)c2F)o1 [1-392 (R-configuration)]
Digitaria sanguinahs (activity level) (Digitaria sanguinalis; Table 3, dose 500 g a.i./ha): 5 (Level 5: growth control rate is above 85%) | Setaria viridis (activity level) (Setaria viridis; Table 3, dose 500 g a.i./ha): 5 (Level 5: growth control rate is above 85%) | Echinochloa crusgali (activity level) (Echinochloa crusgalli; Table 3, dose 500 g a.i./ha): 5 (Level 5: growth control rate is above 85%)

Cc1nnc(NC(=O)c2ccc(C(F)(F)F)c([S@@+]([O-])CCC3CC3)c2F)o1 [1-395 (R-configuration)]
Digitaria sanguinahs (activity level) (Digitaria sanguinalis; Table 3, dose 500 g a.i./ha): 5 (Level 5: growth control rate is above 85%) | Setaria viridis (activity level) (Setaria viridis; Table 3, dose 500 g a.i./ha): 5 (Level 5: growth control rate is above 85%) | Echinochloa crusgali (activity level) (Echinochloa crusgalli; Table 3, dose 500 g a.i./ha): 5 (Level 5: growth control rate is above 85%)

C=CCC[S@+]([O-])c1c(C(F)(F)F)ccc(C(=O)Nc2nnc(C)o2)c1F [1-397 (R-configuration)]
Digitaria sanguinahs (activity level) (Digitaria sanguinalis; Table 3, dose 125 g a.i./ha): 5 (Level 5: growth control rate is above 85%) | Setaria viridis (activity level) (Setaria viridis; Table 3, dose 125 g a.i./ha): 5 (Level 5: growth control rate is above 85%) | Echinochloa crusgali (activity level) (Echinochloa crusgalli; Table 3, dose 125 g a.i./ha): 5 (Level 5: growth control rate is above 85%)

C/C=C/C[S@@+]([O-])c1c(C(F)(F)F)ccc(C(=O)Nc2nnc(C)o2)c1F [1-398 (R-configuration)]
Digitaria sanguinahs (activity level) (Digitaria sanguinalis; Table 3, dose 250 g a.i./ha): 5 (Level 5: growth control rate is above 85%) | Setaria viridis (activity level) (Setaria viridis; Table 3, dose 250 g a.i./ha): 5 (Level 5: growth control rate is above 85%) | Echinochloa crusgali (activity level) (Echinochloa crusgalli; Table 3, dose 250 g a.i./ha): 5 (Level 5: growth control rate is above 85%)

C#CCC[S@@+]([O-])c1c(C(F)(F)F)ccc(C(=O)Nc2nnc(C)o2)c1F [1-401 (R-configuration)]
Digitaria sanguinahs (activity level) (Digitaria sanguinalis; Table 3, dose 500 g a.i./ha): 5 (Level 5: growth control rate is above 85%) | Setaria viridis (activity level) (Setaria viridis; Table 3, dose 500 g a.i./ha): 5 (Level 5: growth control rate is above 85%) | Echinochloa crusgali (activity level) (Echinochloa crusgalli; Table 3, dose 500 g a.i./ha): 5 (Level 5: growth control rate is above 85%)

CC#CC[S@+]([O-])c1c(C(F)(F)F)ccc(C(=O)Nc2nnc(C)o2)c1F [1-402 (R-configuration)]
Digitaria sanguinahs (activity level) (Digitaria sanguinalis; Table 3, dose 500 g a.i./ha): 5 (Level 5: growth control rate is above 85%) | Setaria viridis (activity level) (Setaria viridis; Table 3, dose 500 g a.i./ha): 5 (Level 5: growth control rate is above 85%) | Echinochloa crusgali (activity level) (Echinochloa crusgalli; Table 3, dose 500 g a.i./ha): 5 (Level 5: growth control rate is above 85%)

Cc1nnc(NC(=O)c2ccc(C(F)(F)F)c([S@@+]([O-])CC(C)F)c2F)o1 (some centres unmarked) [1-404 (R-configuration)]
Digitaria sanguinahs (activity level) (Digitaria sanguinalis; Table 3, dose 60 g a.i./ha): 5 (Level 5: growth control rate is above 85%) | Setaria viridis (activity level) (Setaria viridis; Table 3, dose 60 g a.i./ha): 5 (Level 5: growth control rate is above 85%) | Echinochloa crusgali (activity level) (Echinochloa crusgalli; Table 3, dose 60 g a.i./ha): 5 (Level 5: growth control rate is above 85%)

Cc1nnc(NC(=O)c2ccc(C(F)(F)F)c([S@@+]([O-])CCC(F)F)c2F)o1 [1-405 (R-configuration)]
Digitaria sanguinahs (activity level) (Digitaria sanguinalis; Table 3, dose 125 g a.i./ha): 5 (Level 5: growth control rate is above 85%) | Setaria viridis (activity level) (Setaria viridis; Table 3, dose 125 g a.i./ha): 5 (Level 5: growth control rate is above 85%) | Echinochloa crusgali (activity level) (Echinochloa crusgalli; Table 3, dose 125 g a.i./ha): 5 (Level 5: growth control rate is above 85%)

Cc1nnc(NC(=O)c2ccc(C(F)(F)F)c([S@@+]([O-])CCCC(F)(F)F)c2F)o1 [1-411 (R-configuration)]
Digitaria sanguinahs (activity level) (Digitaria sanguinalis; Table 3, dose 250 g a.i./ha): 5 (Level 5: growth control rate is above 85%) | Setaria viridis (activity level) (Setaria viridis; Table 3, dose 250 g a.i./ha): 5 (Level 5: growth control rate is above 85%) | Echinochloa crusgali (activity level) (Echinochloa crusgalli; Table 3, dose 250 g a.i./ha): 5 (Level 5: growth control rate is above 85%)

Cc1nnc(NC(=O)c2ccc(C(F)(F)F)c([S@+]([O-])CCC(F)(F)C(F)(F)F)c2F)o1 [1-412 (R-configuration)]
Digitaria sanguinahs (activity level) (Digitaria sanguinalis; Table 3, dose 500 g a.i./ha): 5 (Level 5: growth control rate is above 85%) | Setaria viridis (activity level) (Setaria viridis; Table 3, dose 500 g a.i./ha): 5 (Level 5: growth control rate is above 85%) | Echinochloa crusgali (activity level) (Echinochloa crusgalli; Table 3, dose 500 g a.i./ha): 5 (Level 5: growth control rate is above 85%)

C#CCSc1c(C(F)(F)F)ccc(C(=O)Nc2nnc(C)o2)c1F [Compound 1-43]
Echinochloa crusgah (activity level) (Echinochloa crusgalli): 5 (Level 5: growth control rate is above 85%)

Cc1nnc(NC(=O)c2ccc(C(F)(F)F)c(SCCF)c2F)o1 [Compound 1-48]
Digitaria sanguinalis (activity level) (Digitaria sanguinalis): 5 (Level 5: growth control rate is above 85%) | Echinochloa crusgah (activity level) (Echinochloa crusgalli): 5 (Level 5: growth control rate is above 85%)

Cc1nnc(NC(=O)c2ccc(C(F)(F)F)c(SC#N)c2F)o1 [Compound 1-68]
Echinochloa crusgah (activity level) (Echinochloa crusgalli): 5 (Level 5: growth control rate is above 85%)

Cc1nnc(NC(=O)c2ccc(C(F)(F)F)c(SCC#N)c2F)o1 [Compound 1-69]
Echinochloa crusgah (activity level) (Echinochloa crusgalli): 5 (Level 5: growth control rate is above 85%)

CC(=O)Sc1c(C(F)(F)F)ccc(C(=O)Nc2nnc(C)o2)c1F [Compound 1-70]
Echinochloa crusgah (activity level) (Echinochloa crusgalli): 5 (Level 5: growth control rate is above 85%)

Cc1nnc(NC(=O)c2ccc(C(F)(F)F)c(S(=O)(=O)C(C)(C)C)c2F)o1 [Compound 1-138]
Digitaria sanguinalis (activity level) (Digitaria sanguinalis): 5 (Level 5: growth control rate is above 85%) | Echinochloa crusgah (activity level) (Echinochloa crusgalli): 5 (Level 5: growth control rate is above 85%)

Cc1nnc(NC(=O)c2ccc(C(F)(F)F)c([S+]([O-])C3CCCCC3)c2F)o1 (centres unmarked) [Compound 1-394]
Echinochloa crusgah (activity level) (Echinochloa crusgalli): 5 (Level 5: growth control rate is above 85%)

Cc1nnc(NC(=O)c2ccc(C(F)(F)F)c([S+]([O-])CCO)c2F)o1 (centres unmarked) [Compound 1-429]
Digitaria sanguinalis (activity level) (Digitaria sanguinalis): 5 (Level 5: growth control rate is above 85%) | Echinochloa crusgah (activity level) (Echinochloa crusgalli): 5 (Level 5: growth control rate is above 85%) | Abutilion theophrasti (activity level) (Abutilon theophrasti): 5 (Level 5: growth control rate is above 85%)

Cc1nnc(NC(=O)c2ccc(C(F)(F)F)c([S+]([O-])CCCO)c2F)o1 (centres unmarked) [Compound 1-430]
Digitaria sanguinalis (activity level) (Digitaria sanguinalis): 5 (Level 5: growth control rate is above 85%) | Echinochloa crusgah (activity level) (Echinochloa crusgalli): 5 (Level 5: growth control rate is above 85%) | Abutilion theophrasti (activity level) (Abutilon theophrasti): 5 (Level 5: growth control rate is above 85%)

CCOC[S+]([O-])c1c(C(F)(F)F)ccc(C(=O)Nc2nnc(C)o2)c1F (centres unmarked) [Compound 1-444]
Echinochloa crusgah (activity level) (Echinochloa crusgalli): 5 (Level 5: growth control rate is above 85%)

CC(C)C[S+]([O-])c1c(C(F)(F)F)ccc(C(=O)Nc2nnco2)c1F (centres unmarked) [Compound 3-20]
Echinochloa crusgah (activity level) (Echinochloa crusgalli): 5 (Level 5: growth control rate is above 85%)
